Test results published in PubChem BioAssay (NCI).
Several values for one entry are separate records, joined by “and”; a condition that tells them apart may be missing. Identical values can stand only once.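 The concentration for 50% growth inhibition is given as GI50. TGI: total growth inhibition.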

Experiments:
Assay in all cases: NCI-60 cell line screen, 384-well format
HCC-2998 colon = test system: HCC-2998 colon
RXF 393 renal = test system: RXF 393 renal
SF-539 CNS = test system: SF-539 CNS
MDA-MB-468 breast = test system: MDA-MB-468 breast
U251 glioblastoma = test system: U251 glioblastoma
HOP-92 NSCLC = test system: HOP-92 NSCLC
SR leukemia = test system: SR leukemia
ACHN renal = test system: ACHN renal
SF-268 CNS = test system: SF-268 CNS
NCI-H522 lung = test system: NCI-H522 lung
LOX IMVI melanoma = test system: LOX IMVI melanoma
MDA-MB-231 breast = test system: MDA-MB-231 breast
SF-295 CNS = test system: SF-295 CNS
A549 NSCLC = test system: A549 NSCLC
NCI-H226 lung = test system: NCI-H226 lung
SW-620 colon = test system: SW-620 colon
OVCAR-4 ovarian = test system: OVCAR-4 ovarian
HL-60(TB) leukemia = test system: HL-60(TB) leukemia
PC-3 prostate = test system: PC-3 prostate
NCI/ADR-RES ovarian = test system: NCI/ADR-RES ovarian
UO-31 renal = test system: UO-31 renal
SNB-75 CNS = test system: SNB-75 CNS
786-0 renal = test system: 786-0 renal
UACC-257 melanoma = test system: UACC-257 melanoma
KM12 colon = test system: KM12 colon
DU-145 prostate = test system: DU-145 prostate
SK-OV-3 ovarian = test system: SK-OV-3 ovarian
M14 melanoma = test system: M14 melanoma
HCT-15 colon = test system: HCT-15 colon
MCF7 breast = test system: MCF7 breast
UACC-62 melanoma = test system: UACC-62 melanoma
NCI-H322M lung = test system: NCI-H322M lung

## COc1c(OCCCN2CCOCC2)ccc2c3n(c(=NC(=O)c4cnc(N)nc4)nc12)CCN3
HCC-2998 colon
  GI50: 82.3 nM and 138 nM
  TGI: 5440 nM and 766 nM
RXF 393 renal
  GI50: 174 nM and 47 nM
  TGI: 611 nM and 162 nM
SF-539 CNS
  GI50: 103 nM and 96.9 nM
MDA-MB-468 breast
  GI50: 15.3 nM and 20.4 nM
  TGI: 79.7 nM and 138 nM
U251 glioblastoma
  GI50: 314 nM and 510 nM
  TGI: > 100000 nM
HOP-92 NSCLC
  GI50: 38.5 nM and 35 nM
SR leukemia
  GI50: 215 nM and 198 nM
  TGI: 3020 nM and 714 nM
ACHN renal
  GI50: 26.6 nM and 108 nM
SF-268 CNS
  GI50: 132 nM and 268 nM
  TGI: 29100 nM
NCI-H522 lung
  GI50: 147 nM and 151 nM
  TGI: > 50000 nM and 5610 nM
LOX IMVI melanoma
  GI50: 154 nM
  TGI: 1210 nM
MDA-MB-231 breast
  GI50: 1960 nM and 219 nM
SF-295 CNS
  GI50: 177 nM and 135 nM
A549 NSCLC
  GI50: 67.7 nM and 54.1 nM
  TGI: 849 nM and 908 nM
NCI-H226 lung
  GI50: 160 nM and 90.8 nM
  TGI: > 50000 nM
SW-620 colon
  GI50: 270 nM and 656 nM
  TGI: > 100000 nM
OVCAR-4 ovarian
  GI50: 419 nM and 388 nM
  TGI: 15700 nM and 3430 nM
HL-60(TB) leukemia
  GI50: < 5 nM
PC-3 prostate
  GI50: 66.8 nM and 34.4 nM
NCI/ADR-RES ovarian
  GI50: 1970 nM and 424 nM
  TGI: > 100000 nM
UO-31 renal
  GI50: 30.5 nM
  TGI: 258 nM
SNB-75 CNS
  GI50: 7.16 nM and < 13.2 nM
  TGI: 31.7 nM and 81.4 nM
786-0 renal
  GI50: 177 nM and 242 nM
  TGI: 14000 nM
UACC-257 melanoma
  GI50: 172 nM and 201 nM
  TGI: 10300 nM and 3800 nM
KM12 colon
  GI50: 436 nM and 316 nM
  TGI: > 100000 nM
DU-145 prostate
  GI50: 128 nM and 164 nM
  TGI: > 100000 nM
SK-OV-3 ovarian
  GI50: 10.1 nM
  TGI: 63.7 nM
M14 melanoma
  GI50: 190 nM and 158 nM
  TGI: > 50000 nM
HCT-15 colon
  GI50: 47.8 nM and 78.3 nM
  TGI: > 50000 nM
MCF7 breast
  GI50: < 5 nM
  TGI: > 50000 nM
UACC-62 melanoma
  GI50: 82 nM and 84.4 nM
  TGI: 237 nM and 362 nM
NCI-H322M lung
  GI50: 93.3 nM and 38.9 nM
